Assay results from US20020132776A1, “Inhibitors of transglutaminase” (N-Zyme Biotech GmbH, priority 2000, published 2002).
Where a SMILES comes first, the peptide text is derived from it. The star is where a group is joined. Cbz = O=C(OCc1ccccc1)*; ClAc = O=C(CCl)*; For = O=C*

Key:
Assay type in all cases: biochemical
[1] = target: T1, guinea pig liver transglutaminase (Cavia cutleri, UniProt P08587); test: Inhibition of tissue transglutaminase, hydroxamate assay (Example 29); details: 20 min preincubation at 37° C., first block r5-r22
T1 sequence (P08587 1-690): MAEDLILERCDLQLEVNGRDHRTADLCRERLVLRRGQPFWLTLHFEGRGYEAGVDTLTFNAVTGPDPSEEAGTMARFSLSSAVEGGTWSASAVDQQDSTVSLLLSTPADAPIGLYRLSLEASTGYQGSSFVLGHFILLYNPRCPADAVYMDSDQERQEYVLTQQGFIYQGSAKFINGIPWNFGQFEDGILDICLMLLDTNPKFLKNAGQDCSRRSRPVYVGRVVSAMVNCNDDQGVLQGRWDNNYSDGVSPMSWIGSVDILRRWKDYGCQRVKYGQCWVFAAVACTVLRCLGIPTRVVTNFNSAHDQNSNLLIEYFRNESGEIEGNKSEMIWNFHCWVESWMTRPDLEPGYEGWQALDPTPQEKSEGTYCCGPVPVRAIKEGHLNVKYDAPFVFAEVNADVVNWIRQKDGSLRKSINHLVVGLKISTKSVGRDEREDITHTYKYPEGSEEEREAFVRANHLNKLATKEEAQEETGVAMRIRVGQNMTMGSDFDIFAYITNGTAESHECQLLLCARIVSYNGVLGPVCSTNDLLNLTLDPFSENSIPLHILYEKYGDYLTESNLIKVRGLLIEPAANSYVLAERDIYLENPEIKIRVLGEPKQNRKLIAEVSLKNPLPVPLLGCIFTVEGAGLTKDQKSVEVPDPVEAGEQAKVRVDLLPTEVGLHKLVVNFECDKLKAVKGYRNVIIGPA
Procedure: The inhibitors are dissolved in dimethyl sulfoxide (DMSO) at a concentration of 100 mM. Solutions having a concentration of 10 mM, 1 mM and 0.1 mM are prepared by dilution with transglutaminase buffer (50 mM Tris-HCl, pH 7.0, 5 mM CaCl2, 2 mM DTT).
Afterwards, inhibition takes place by incubation (20 minutes at 37° C.) of 25 μL of a transglutaminase solution (bacterial transglutaminase or guinea pig liver transglutaminase, respectively) with 25 μL of the respective inhibitor solution. Immediately after the incubation has finished, 100 μL of substrate solution (0.1 mM hydroxylamine, 30 mM CBZ-Gln-Gly-OH, 2 mM DTT, 5 mM CaCl2 in 50 mM Tris-HCl, pH 7.0) are added and it is incubated for 10 minutes at 37° C. The reaction is stopped with 100 μL of a solution of 4% (w/v) HCl, 1.7% (w/v) FeCl3 and 4% (w/v) trichloroacetic acid [see Grossowicz et al., J. Biol. Chem. 187, 111-125, 1950]. After centrifugation (10 minutes, 10,000× g) the extinction of the supernatant solution at 492 nm in the microtiter plate reader and, thus, the remaining activity of the transglutaminase is determined.

[2] = target: T2, factor XIIIa (Homo sapiens, UniProt P00488); test: Factor XIIIa fibrin coagulation/crosslinking inhibitor test (Example 31); details: inhibitor concentration range 0 to 10 μm; absorption of clots at 405 nm
T2 sequence (P00488 39-732 limits assumed): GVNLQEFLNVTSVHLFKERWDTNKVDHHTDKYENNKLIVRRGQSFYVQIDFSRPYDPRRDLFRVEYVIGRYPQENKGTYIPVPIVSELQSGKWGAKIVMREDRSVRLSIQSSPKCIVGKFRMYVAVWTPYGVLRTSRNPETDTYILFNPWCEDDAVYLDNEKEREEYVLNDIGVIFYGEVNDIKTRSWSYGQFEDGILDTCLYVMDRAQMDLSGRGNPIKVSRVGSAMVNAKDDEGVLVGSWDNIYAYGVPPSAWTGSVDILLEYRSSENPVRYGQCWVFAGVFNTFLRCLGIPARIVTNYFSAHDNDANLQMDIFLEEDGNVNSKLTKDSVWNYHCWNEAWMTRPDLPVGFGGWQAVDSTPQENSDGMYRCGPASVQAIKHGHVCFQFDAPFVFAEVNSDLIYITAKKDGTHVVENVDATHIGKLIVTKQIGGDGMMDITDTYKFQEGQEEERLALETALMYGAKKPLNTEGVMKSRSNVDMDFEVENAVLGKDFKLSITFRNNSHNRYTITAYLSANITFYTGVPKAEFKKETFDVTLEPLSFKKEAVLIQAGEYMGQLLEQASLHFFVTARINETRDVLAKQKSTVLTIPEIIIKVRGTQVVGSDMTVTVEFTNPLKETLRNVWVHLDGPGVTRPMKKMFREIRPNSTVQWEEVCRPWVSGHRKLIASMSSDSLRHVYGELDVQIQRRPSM
Procedure: The inhibitor tests were carried out in microtiter plates (0.2 ml). This entailed examination of the ability of the plasma transglutaminase to catalyze the coagulation of fibrin with and without inhibitor [modified method of Tymiak et al., J. Antibiot., 46, 204-206 (1993)].
40 μl of bovine fibrinogen (3 mg/ml, Sigma) in 25 mm Tris-HCl with 100 mm NaCl and 2.5 mm Ca^2+, pH 7.5, were incubated with 2 U/ml bovine thrombin (Sigma) at 25° C. for 10 min.
In a second mixture in parallel therewith, likewise 2 U/ml bovine thrombin (Sigma) were added to 20 μg/ml FXIII in 25 mm Tris-HCl with 100 mm NaCl and 2.5 mm Ca^2+, pH 7.5, and incubated at 25° C. for 10 min. The γ-aldehyde inhibitor concentration was then adjusted so that the measurements covered a concentration range from 0 to 10 μm. The reaction mixture was incubated at 25° C. for 15 min.
The two mixtures were combined and, after an incubation at 30° C. for 15 min, 150 μl of urea (8 M) were added. The absorption of the clots was measured at 405 nm.

[3] = target: T1, guinea pig liver transglutaminase; test: Guinea pig liver transglutaminase, incorporation of hydroxylamine into CBZ-Gln-Gly (Example 31); details: 0-10 μM inhibitor, 15 min at 25° C.
Procedure: The inhibitor tests were carried out in analogy to the factor XIII test in microtiter plates. In this case, the incorporation of hydroxylamine into carbobenzoxy-L-glutaminylglycine (CBZ-Gln-Gly) was investigated [modified method of Grossowicz et al., J. Biol. Chem., 187, 111 -125 (1950)].
25 μl (0-10 μM) of inhibitor were added to 25 μl (5.0 U/ml) of guinea pig liver transglutaminase (Sigma) and incubated at 25° C. for 15 min. Then 100 μl of 0.2 M tris-acetate buffer, pH 6.0, with 30 mm CBZ-Gln-Gly, 0.1 M hydroxylamine and 10 mM glutathione were pipetted in. After 10 min at 37° C., the absorption at 492 nm was measured using a microtiter plate reader.

**Q.** Which results are given for `O=COC[C@H](NC(=O)OCc1ccccc1)C(=O)NCC(=O)O` [Carbobenzoxy-L-serylglycine β-formate, Carbobenzoxy-L-serylglycine β-Formate] (Cbz-Ser(For)-Gly-OH)?
**A.** Inhibition of tissue transglutaminase at an inhibitor concentration of 0.05 mM ([1]; 0.05 mM inhibitor): 0%; Inhibition of tissue transglutaminase at an inhibitor concentration of 0.5 mM ([1]; 0.5 mM inhibitor): 0%; Inhibition of tissue transglutaminase at an inhibitor concentration of 5 mM ([1]; 5 mM inhibitor): 56%

**Q.** For `CCOC(=O)CNC(=O)[C@H](COC(C)=O)NC(=O)OCc1ccccc1` [Carbobenzoxy-β-(O-acetyl)-L-serylglycine Ethyl Ester] (Cbz-Ser(Ac)-Gly-OEt), which “Inhibition of tissue transglutaminase at an inhibitor concentration of 0.05 mM” value (“Inhibition … of 0.05 mM” below) ([1]; 0.05 mM inhibitor) is on record?
**A.** 0%

**Q.** What about the “Inhibition of tissue transglutaminase at an inhibitor concentration of 0.5 mM” value (“Inhibition … of 0.5 mM” for short) ([1]; 0.5 mM inhibitor) of the same compound?
**A.** 0%

**Q.** What about the “Inhibition of tissue transglutaminase at an inhibitor concentration of 5 mM” value (“Inhibition of tissue transglutaminase … of 5 mM” for short) ([1]; 5 mM inhibitor) of the same compound?
**A.** 0%

**Q.** Which inhibition at 50 µM ([1]; 0.05 mM inhibitor, read-out: Inhibition of tissue transglutaminase at an inhibitor concentration of 0.05 mM) does the source give for `NC(=O)NC[C@H](NC(=O)OCc1ccccc1)C(=O)NCC(=O)O` [Carbobenzoxy-β-ureido-L-alanylglycine] here?
**A.** 0%

**Q.** What about the inhibition at 500 µM ([1]; 0.5 mM inhibitor, read-out: Inhibition of tissue transglutaminase at an inhibitor concentration of 0.5 mM) of the same compound?
**A.** 0%

**Q.** And the inhibition at 5000 µM ([1]; 5 mM inhibitor, read-out: Inhibition of tissue transglutaminase at an inhibitor concentration of 5 mM)?
**A.** 35%

**Q.** With `CCOC(=O)CNC(=O)[C@H](COC=O)NC(=O)OCc1ccccc1` [Carbobenzoxy-β-(O-formyl)-L-serylglycine Ethyl Ester] (Cbz-Ser(For)-Gly-OEt) as the compound, how does the “Inhibition … of 0.05 mM” value ([1]; 0.05 mM inhibitor) read?
**A.** 0%

**Q.** What about the “Inhibition … of 0.5 mM” value ([1]; 0.5 mM inhibitor) of the same compound?
**A.** 0%

**Q.** What about the “Inhibition of tissue transglutaminase … of 5 mM” value ([1]; 5 mM inhibitor) of the same compound?
**A.** 0%

**Q.** Which results are given for “Carbobenzoxy-β-(O-carbamoyl)-L-serylglycine Ethyl Ester”?
**A.** Inhibition of tissue transglutaminase at an inhibitor concentration of 0.05 mM ([1]; 0.05 mM inhibitor): 0%; Inhibition of tissue transglutaminase at an inhibitor concentration of 0.5 mM ([1]; 0.5 mM inhibitor): 0%; Inhibition of tissue transglutaminase at an inhibitor concentration of 5 mM ([1]; 5 mM inhibitor): 0%

**Q.** With `O=CCC[C@H](NC(=O)OCc1ccccc1)C(=O)NCC(=O)O` [γ-Aldehyde of carbobenzoxy-L-glutamylglycine] as the compound, how does the “Inhibition of factor XIIIa (fibrin crosslinking)” value [2] read?
**A.** cannot be inhibited

**Q.** And the “Inhibitor concentration at which guinea pig liver transglutaminase is inhibited” value [3]?
**A.** 1 µM

**Q.** For “γ-Aldehyde of tert-butyloxycarbonyl-L-glutaminyl-L-glutaminyl-L-isoleucyl-L-valine”, which “Inhibition of factor XIIIa (fibrin crosslinking)” value [2] is on record?
**A.** effective factor XIIIa inhibitor

**Q.** Which “Inhibition … of 0.05 mM” value ([1]; 0.05 mM inhibitor) does the source give for `O=C(O)CNC(=O)[C@H](COC(=O)CCl)NC(=O)OCc1ccccc1` [Carbobenzoxy-L-serylglycine β-Chloroacetate] (Cbz-Ser(ClAc)-Gly-OH) here?
**A.** 1%

**Q.** What about the “Inhibition … of 0.5 mM” value ([1]; 0.5 mM inhibitor) of the same compound?
**A.** 43%

**Q.** What about the “Inhibition of tissue transglutaminase … of 5 mM” value ([1]; 5 mM inhibitor) of the same compound?
**A.** 91%

**Q.** Which results are given for `CC(C)(C)OC(=O)CNC(=O)[C@H](CNC(N)=O)NC(=O)OCc1ccccc1` [Carbobenzoxy-β-(N-carbamoyl)-L-aminoalanylglycine tert-butyl Ester]?
**A.** Inhibition of tissue transglutaminase at an inhibitor concentration of 0.05 mM ([1]; 0.05 mM inhibitor): 0%; Inhibition of tissue transglutaminase at an inhibitor concentration of 0.5 mM ([1]; 0.5 mM inhibitor): 0%; Inhibition of tissue transglutaminase at an inhibitor concentration of 5 mM ([1]; 5 mM inhibitor): 0%

**Q.** Which results are given for `CC(=O)OC[C@H](NC(=O)OCc1ccccc1)C(=O)NCC(=O)O` [Carbobenzoxy-L-serylglycine β-acetate, Carbobenzoxy-L-serylqlycine β-acetate] (Cbz-Ser(Ac)-Gly-OH)?
**A.** Inhibition of tissue transglutaminase at an inhibitor concentration of 0.05 mM ([1]; 0.05 mM inhibitor): 0%; Inhibition of tissue transglutaminase at an inhibitor concentration of 0.5 mM ([1]; 0.5 mM inhibitor): 0%; Inhibition of tissue transglutaminase at an inhibitor concentration of 5 mM ([1]; 5 mM inhibitor): 0%

**Q.** For `CCOC(=O)CNC(=O)[C@H](COC(=O)CCl)NC(=O)OCc1ccccc1` [Carbobenzoxy-β-(O-chloroacetyl)-L-serylglycine Ethyl Ester] (Cbz-Ser(ClAc)-Gly-OEt), which “Inhibition … of 0.05 mM” value ([1]; 0.05 mM inhibitor) is on record?
**A.** 2%

**Q.** What about the “Inhibition … of 0.5 mM” value ([1]; 0.5 mM inhibitor) of the same compound?
**A.** 7%

**Q.** What about the “Inhibition of tissue transglutaminase … of 5 mM” value ([1]; 5 mM inhibitor) of the same compound?
**A.** 76%
